Series [1] can be described thus: MTT cytotoxicity on normal human skin keratinocytes. To be noted: normal human epidermal keratinocytes.
Protocol: (§1) To make sure the peptides are not cytotoxic to the cells, normal human epidermal keratinocytes were seeded to a 96-well plate. The plate was incubated at 37° C. in the presence of 5% CO2 to allow the cells to grow to >95% confluent. Peptides are diluted into stock solutions at concentrations of 50, 100, 200, and 500 μg/ml. The cell culture media are replaced with fresh media containing peptides at various concentrations then incubated at 37° C. and 5% CO2 for 24 hr. At the end of treatment the cell viability was measured using MTT assay kit purchased from ATCC (Manassas Va.).
Series [2] in a line: in vitro. To be noted: human, normal human epidermal keratinocytes.
Protocol: as §1
The test system of series [3] is wound repair in a murine model. To be noted: cited from earlier work.

Ends that are not written are not given here. Peptide text beside a SMILES is read from it.

In series [1], `CC[C@H](C)[C@H](NC(=O)[C@@H](N)CCCCN)C(=O)N[C@@H](CCC(=O)O)C(=O)N[C@@H](CCCCN)C(=O)O` [HB2232, KIEK] (H-KIEK-OH) displayed a CC50 at 24 h of more than 500 µg/mL.

On to `CSCC[C@H](NC(=O)[C@H](CCCCN)NC(=O)[C@@H](N)CCC(=O)O)C(=O)NCC(=O)O` [HB2234, EKMG] (H-EKMG-OH), for which the CC50 at 24 h in series [1] was more than 500 µg/mL.

`CSCC[C@H](N)C(=O)NCC(=O)N[C@@H](CCCNC(=N)N)C(=O)N[C@@H](CC(N)=O)C(=O)O` [HB2235, MGRN] (H-MGRN-OH) had a CC50 at 24 h in series [1] of more than 500 µg/mL.

For the compound `CSCC[C@H](NC(=O)[C@@H](N)CCCCN)C(=O)NCC(=O)O` [HB2268, KMG] (H-Lys-Met-Gly-OH), the CC50 at 24 h in series [2] was more than 500 µg/mL.

`N=C(N)NCCC[C@H](NC(=O)CN)C(=O)N[C@@H](CC(N)=O)C(=O)O` [HB2269, GRN] (H-Gly-Arg-Asn-OH) showed a CC50 at 24 h in series [1] of more than 500 µg/mL.

As to EKMGR [HB2263, EKMGR], the CC50 at 24 h in series [1] is more than 500 µg/mL.

Consider EKMGRN [HB2265, EKMGRN], for which the CC50 at 24 h in series [1] is more than 500 µg/mL.

For the compound GRNIRN [HB1062, GRNIRN], the CC50 at 24 h in series [1] is more than 500 µg/mL.

In series [1], KMGRN [HB2262, KMGRN] came in with a CC50 at 24 h of more than 500 µg/mL.

On to “MPKEKVFLKIEKMGRNIRN (Peptide HB107) [non-antimicrobial host defense peptide derived from cecropin B]”, for which, in series [3] (murine model, compared with growth factor rhPDGF), the “Benefit in wound repair” value is given as “indistinguishable from the wound treated with growth factor rhPDGF”. In addition, the “Epidermal hyperplasia (histological analysis of treated wounds)” value in series [3] (murine wounds) is “increased”.
